The values below come from ChEMBL document CHEMBL5352486, “Design, synthesis, in vitro - In vivo biological evaluation of novel thiazolopyrimidine compounds as antileishmanial agent with PTR1 inhibition” (Eur J Med Chem, 2023).

The subject of series [1] is Leishmania infantum. As to the kind of experiment: Antileishmanial activity against Leishmania infantum MHOM/TN/1980/IPT1 incubated for 48 hrs by Neubauer hemocytometer analysis. The class given is functional, organism-based. Conditions: MHOM/TN/1980/IPT1, 48 h.
Series [2] concerns Leishmania infantum. As to the kind of experiment: Antileishmanial activity against Leishmania infantum MHOM/TN/1980/IPT1 incubated for 48 hrs by XTT method. It is filed as functional, organism-based. Conditions: MHOM/TN/1980/IPT1, 48 h. On the technique in general: Tetrazolium dyes change colour on reduction, which living cells bring about.
In series [3] the test system is Leishmania tropica. In words: Antileishmanial activity against Leishmania tropica MHOM/A7/1974/SAF-K27 incubated for 48 hrs by XTT method. It is filed as functional, organism-based. The following applies: MHOM/A7/1974/SAF-K27, 48 h.
Series [4] concerns RAW264.7. In words: (§1) Cytotoxicity against mouse RAW264.7 cells by alamar blue method. Conditions: raw264.7. The class given is toxicity, cell-based. (Resazurin is reduced to fluorescent resorufin, in cell work by metabolically active cells.)
Series [5] is described as follows: as §1. It is filed as toxicity, cell-based. Conditions: mouse, RAW264.7 cells.
The nature of series [6]: (§2) Cytotoxicity against mouse L929 cells by alamar blue method. It is filed as toxicity, cell-based. Conditions: mouse, L929 cells.
The subject of series [7] is L929. The series is described as §2. It is filed as toxicity, cell-based. Conditions: l929.
Series [8] deals with Leishmania tropica. In words: Antileishmanial activity against Leishmania tropica MHOM/A7/1974/SAF-K27 incubated for 48 hrs by Neubauer hemocytometer analysis. It is filed as functional, organism-based. The following applies: MHOM/A7/1974/SAF-K27, 48 h.
The test system of series [9] is DHFR (human) versus PTR1 (Leishmania major). In words: Selectivity index, ratio of IC50 for human DHFR to IC50 for Leishmania major PTR1. It is filed as toxicity. The following applies: human DHFR enzyme and Leishmania major PTR1 enzyme, read-out: Ratio IC50.
The target in series [10] is T1, Pteridine reductase 1 (Leishmania major, UniProt Q01782).
T1 sequence (Q01782 whole entry): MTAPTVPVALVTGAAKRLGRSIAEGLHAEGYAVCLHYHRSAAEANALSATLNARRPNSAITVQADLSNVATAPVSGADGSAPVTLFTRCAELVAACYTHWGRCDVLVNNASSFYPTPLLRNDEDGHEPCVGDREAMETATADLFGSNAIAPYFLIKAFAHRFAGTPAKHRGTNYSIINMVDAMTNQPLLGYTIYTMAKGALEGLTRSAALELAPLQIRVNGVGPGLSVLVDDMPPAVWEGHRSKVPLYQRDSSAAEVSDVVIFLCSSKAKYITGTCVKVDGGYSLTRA
In words: Inhibition of recombinant Leishmania major PTR1 expressed in Escherichia coli BL21 using folic acid as substrate in presence of NADPH.

Series [11] deals with T2, Dihydrofolate reductase (Homo sapiens, UniProt P00374).
T2 sequence (P00374 whole entry): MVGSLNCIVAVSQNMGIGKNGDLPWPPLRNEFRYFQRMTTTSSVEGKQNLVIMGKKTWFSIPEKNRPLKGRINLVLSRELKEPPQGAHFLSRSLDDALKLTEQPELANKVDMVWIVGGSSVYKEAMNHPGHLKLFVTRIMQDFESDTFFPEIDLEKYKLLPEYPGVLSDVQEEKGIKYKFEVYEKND
As to the kind of experiment: Inhibition of human DHFR using dihydrofolate as substrate in presence of NADPH. The class given is toxicity.

Values after ≈ are worked out from the molar mass of the structure shown.

As usually defined, the IC50 is the concentration that inhibits the measured activity by half.

As to `CN1CCN(c2ncc3nc(NC(=O)c4ccc(Cl)cc4)sc3n2)CC1`, the IC50 in [1] worked out at 15.7 µg/mL (≈ 40.3 µM); in series [2], 15.4 µg/mL (≈ 39.7 µM); in [3] it was 15.3 µg/mL (≈ 39.4 µM); in series [5], 14.1 µg/mL (≈ 36.3 µM); in series [6], 25.7 µg/mL (≈ 66.1 µM); in [8], 15.6 µg/mL (≈ 40.2 µM). Also, the IC50 is 28.4 µM in series [10] and 271 µM in series [11]. Also, the results for the “log10 IC50 (µg/mL)” value in [4] and in [7] were 1.15 and 1.41, respectively. Further, the selectivity ratio in series [9] came out at 9.54.
